We go through two compounds from patent US12570984B2, “DNA aptamer specifically binding to glutathione and use thereof” (Nexmos Co., LTD, priority 2020, dated 2026).

Series [1] concerns the target T1, tyrosinase (Homo sapiens, UniProt P14679).
T1 sequence (P14679 19-529): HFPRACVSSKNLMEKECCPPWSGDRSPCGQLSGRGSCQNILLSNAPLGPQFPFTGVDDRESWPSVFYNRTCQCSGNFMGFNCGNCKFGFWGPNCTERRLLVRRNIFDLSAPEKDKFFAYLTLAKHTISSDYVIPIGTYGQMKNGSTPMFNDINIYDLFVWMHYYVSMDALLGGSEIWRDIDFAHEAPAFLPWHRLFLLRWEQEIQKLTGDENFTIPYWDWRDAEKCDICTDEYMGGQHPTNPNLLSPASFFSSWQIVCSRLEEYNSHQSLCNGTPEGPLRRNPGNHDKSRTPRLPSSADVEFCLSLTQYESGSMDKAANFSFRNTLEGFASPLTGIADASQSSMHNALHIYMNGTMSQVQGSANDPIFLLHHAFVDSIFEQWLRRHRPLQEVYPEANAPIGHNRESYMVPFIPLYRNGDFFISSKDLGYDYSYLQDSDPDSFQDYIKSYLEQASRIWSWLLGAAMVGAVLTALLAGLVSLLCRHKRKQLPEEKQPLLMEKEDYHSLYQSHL
In words: Whitening efficacy test, in vitro cell-based tyrosinase activity (MNT-1 cells). As to conditions: 72 hours, final 100 μM GSH, 1 μM Apt G, 0.01% arbutin, L-DOPA, absorbance 475 nm. The procedure: The final concentration of each component in this experiment was 100 μM GSH, 1 μM Apt G, 0.01% arbutin,
100 μM GSH and 1 μM of the prepared aptamer (molar concentration of 100:1) were added to the media and reacted at room temperature for 30 minutes.
MNT-1 cells were seeded on a 6-well plate and incubated for 24 hours at 37° C., 5% CO2 incubator.
After treating each of the prepared samples, the samples were again incubated at 37° C. and 5% CO2 incubator for 72 hours.
After incubation, ice-cold lysis buffer (RIPA buf.+ protease inhibitor) was used to remove the cells from the plate, and the removed cells were transferred to an EP-tube and centrifuged to remove only the supernatant.
Lysate, L-DOPA, potassium phosphate buffer (pH6.5) was added to a 96 well plate and mixed (each test group used the same amount of protein through protein quantification).
After incubation for 1 hour at 37° C., 5% CO2 incubator, absorbance was measured at 475 nm using a plate reader.

Series [2] can be described thus: Antioxidant efficacy test, DTNB assay (sulfhydryl group determination) of GSH stored at 37° C. As to conditions: day 16, storage at 37° C.; final 125 μM GSH, 1.25 μM aptamin G; n=5.
Method: In this experiment, the final concentration of each component was 125 μM GSH and 1.25 μM aptamin G.
The prepared aptamer (100:1) of the prepared aptamer (100:1) of 250 μM GSH and 2.5 μM was dissolved in the 3th distilled water for 30 minutes at room temperature.
The above GSH-Aptamin G complex was stored for a certain period of time under severe conditions (37° C.), and samples were obtained every 4 days and measured for 16 days.
Just before the sample measurement, 10 mm DTNB (4 mg/ml, buffer: 0.1 M potassium Phosphate buffer, pH 8.0) was prepared to mix the sample (50 μL) of DTNB solution and shaking incubation.
After the reaction, the UV Absorbance value was measured at 412 nm and REF wavelength 605 nm using the Plate Reader.
Series [3] concerns tyrosinase. As to conditions: final 20 μM GSH; 37° C. 10 minutes; absorbance 490 nm; N=5. How it is done:
The final concentrations of each component in this experiment were 20 μM GSH, 0.2 μM Apt G, and 0.01% arbutin.
300 μM GSH and 3 μM of the prepared aptamer (molar concentration of 100:1) were dissolved in tertiary distilled water and reacted at room temperature for 30 minutes.
In a 96 well plate, 200 μL of 0.1 M potassium phosphate buffer (pH6.5), 20 μL of sample, 20 μL of 2 KU/mL tyrosinase, and 60 μL of 1.0 mM tyrosine were sequentially added and reacted at 37° C. for 10 minutes.
After the reaction, absorbance was measured at 490 nm using a plate reader.

Take `OC[C@H]1O[C@@H](Oc2ccc(O)cc2)[C@H](O)[C@@H](O)[C@@H]1O` [Arbutin]: the “inhibition of tyrosinase activity (cell test)” value in series [1] is listed as “about 25%”.

Regarding `N[C@@H](CCC(=O)N[C@@H](CS)C(=O)NCC(=O)O)C(=O)O` [GSH, Glutathione], in series [2], the “amount of GSH remaining unoxidized” value was “about 60%”. The “inhibition of tyrosinase activity (cell test)” value in series [1] is listed as “tendency not to inhibit the activity of tyrosinase”. The “inhibition of the activity of tyrosinase” value in series [3] is “about 75%”.
